Measured values published in patent US20230365563A1, “QUINAZOLINE COMPOUND AND APPLICATION THEREOF” (SHANGHAI PHARMACEUTICALS HOLDING CO., LTD., priority 2020, published 2023).
Structures can show the parent of a compound that is named as a salt.

Each molecule was assayed against T1, KRAS-G12D and SOS1 (Homo sapiens, UniProt P01116, G12D) (assay: Inhibition of KRAS-G12D/SOS1 binding (Cisbio binding kit, 665/615 ratio), Effect Embodiment A). Settings: read-out: GTP-KRAS-G12D:SOS1 IC50.
T1 construct: purchased
Summary of the method: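 Compounds underwent 3-fold dilution from their storage solutions (11 points), were transferred to assay wells in duplicate with DMSO held at 1% final, and were briefly centrifuged.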

T1 sequence (P01116 1-188 isoform P01116-2 G12D): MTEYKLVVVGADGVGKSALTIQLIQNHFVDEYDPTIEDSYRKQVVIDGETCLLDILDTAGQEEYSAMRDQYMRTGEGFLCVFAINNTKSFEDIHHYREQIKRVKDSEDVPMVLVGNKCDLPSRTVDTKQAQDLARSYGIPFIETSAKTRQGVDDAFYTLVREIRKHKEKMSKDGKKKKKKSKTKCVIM

IC50 [nM]	SMILES
2360	CN(C)C1CN(c2nc(NCCO)c3cc(Cl)c(-c4cc(O)cc5ccccc45)c(F)c3n2)C1 (single isomer, unassigned) [Compound 18b, (S or R)-4-(6-chloro-2-(3-(dimethylamino)azetidin-1-yl)-8-fluoro-4-((2-hydroxyethyl)amino)-quinazolin-7-yl)naphthalen-2-ol]
678	CN(C)C12CC(c3nc(N4CC5CCC(C4)N5)c4cc(Cl)c(-c5cc(O)cc6ccccc56)c(F)c4n3)(C1)C2 (single isomer, unassigned) [Compound 162a, 4-((S or R)-4-((1R,5S)-3,8-diazabicyclo[3.2.1]octan-3-yl)-6-chloro-2-(3-(dimethylamino)bicyclo[1.1.1]pentan-1-yl)-8-fluoroquinazolin-7-yl)naphthalen-2-ol dihydrochloride]
> 10000	CN(C)CCCOc1nc(N2C[C@H]3CC[C@@H](C2)N3)c2ccn(-c3cc(O)cc4ccccc34)c(=O)c2n1 [Compound 161, 4-((1R,5S)-3,8-diazabicyclo[3.2.1]octan-3-yl)-2-(3-(dimethylamino)propoxy)-7-(3-hydroxynaphthalen-1-yl)pyrido[3,4-d]pyrimidin-8(7H)-one dihydrochloride]
2710	Oc1cc(Cl)c(C2CC2)c(-c2c(Cl)cc3c(N4CC5CCC(C4)N5)nc(OCCCN4C5CCC4COC5)nc3c2F)c1 (single isomer, unassigned) [Compound 197b, 3-((7S or 7R)-2-(3-(3-oxa-8-azabicyclo[3.2.1]octan-8-yl)propoxy)-4-((1R,5S)-3,8-diazabicyclo[3.2.1]octan-3-yl)-6-chloro-8-fluoroquinazolin-7-yl)-5-chloro-4-cyclopropylphenol formate]
1630	CCc1c(F)ccc2cc(O)cc(-c3c(F)cc4c(N5CC6CCC(C5)N6)nc(OCCCN5C[C@@H](C)O[C@@H](C)C5)nc4c3F)c12 (single isomer, unassigned) [Compound 250b, (R or S)-4-(4-((1R,5S)-3,8-diazacyclo[3.2.1]octan-3-yl)-2-(3-((2R,6S)-2,6-dimethylmorpholinyl)propoxy)-6,8-difluoroquinazolin-7-yl)-5-ethyl-6-fluoronaphthalen-2-ol formate]

Further lines, the molecule ahead of its results:

SMILES	IC50 [nM]
CN1CC(F)(F)C[C@H]1COc1nc(N2CC3CCC(C2)N3)c2cnc(-c3cc(O)cc4ccccc34)c(F)c2n1 [Compound 135, 4-(4-((1R,5S)-3,8-diazabicyclo[3.2.1]octan-3-yl)-2-((S)-4,4-difluoro-1-methylpyrrolidin-2-yl)methoxy)-8-fluoropyridinyl[4,3-d]pyrimidin-7-yl)naphthalen-2-ol formate]	133
CN(C)C1CN(c2nc(N3CC4CCC(C3)N4)c3cc(Cl)c(-c4c(O)cccc4F)c(F)c3n2)C1 (single isomer, unassigned) [Compound 43b, 2-((R or S)-4-((1R,5S)-3,8-diazabicyclo[3.2.1]octan-3-yl)-6-chloro-2-(3-(dimethylamino)azetidin-1-yl)-8-fluoroquinazolin-7-yl)-3-fluorophenol]	2570
CN(C)C1CN(c2nc(N=S3(=O)CCC(N)CC3)c3cc(Cl)c(-c4cc(O)cc5ccccc45)c(F)c3n2)C1 (single isomer, unassigned) [Compound 72c, (4S or R)-4-amino-1-(((R or S)-6-chloro-2-(3-(dimethylamino)azetidin-1-yl)-8-fluoro-7-(3-hydroxynaphthalen-1-yl)quinazolin-4-yl)imino)hexahydro-1-thiopyran 1-oxide]	> 200000
CN(C)C1CN(c2nc(C3(C(N)=O)CNC3)c3cc(Cl)c(-c4cc(O)cc5ccccc45)c(F)c3n2)C1 (single isomer, unassigned) [Compound 22b, (R or S)-3-(6-chloro-2-(3-(dimethylamino)azetidin-1-yl)-8-fluoro-7-(3-hydroxynaphthalen-1-yl)quinazolin-4-yl)azetidin-3-carboxamide bistrifluoroacetate]	2420
